Converted amounts (≈) assume the structure as drawn.
Columns and labels:
[1] = tested on: Candida krusei ATCC 6258; experiment: In vitro antifungal activity (MIC), NCCLS method; assay type: cell-based; details: 48 hours
Description: (§1) Candida albicans ATCC 10231, Candida lusitaniae ATCC 42720, Candida krusei ATCC 6258, Candida tropicalis ATCC 13803, Candida glabrata ATCC 48435, Candida parapsilosis ATCC 34136, Cryptococcus neoformans ATCC 36556, Aspergillus fumigatus ATCC 16424, Aspergillus flavus ATCC 64025, Aspergillus terreus ATCC 46941 and Mucor ramosissimus ATCC 90286 strains for the MIC (minimum inhibitory concentration) measurement were obtained from ATCC (American Type Culture Collection) in the U.S. The Candida albicans A207(clinical isolate) strain was used by isolating it from the patients.
(§2) The determination of MIC was performed according to the NCCLS (National Committee for Clinical Laboratory Standard) method. Each test sample solution was diluted two-fold and inoculated with a fungal suspension to reach a final inoculum size of 5×10^2 to 2.5×10^3 cell/mL. The Cryptococcus neoformans strain was cultured in the RPMI 1640 medium for 72 hours. Other strains were cultured for 48 hours.

[2] = tested on: Aspergillus fumigatus ATCC 16424; experiment: In vitro antifungal activity (MIC), NCCLS method; assay type: cell-based; details: 48 hours
Description: as §1, §2

[3] = tested on: Candida albicans A207 (clinical isolate); experiment: In vitro antifungal activity (MIC), NCCLS method; assay type: cell-based; details: 48 hours
Description: as §1, §2

[4] = tested on: Candida tropicalis ATCC 13803; experiment: In vitro antifungal activity (MIC), NCCLS method; assay type: cell-based; details: 48 hours
Description: as §1, §2

[5] = tested on: Mucor ramosissimus ATCC 90286; experiment: In vitro antifungal activity (MIC), NCCLS method; assay type: cell-based; details: 48 hours
Description: as §1, §2

[6] = tested on: Candida parapsilosis ATCC 34136; experiment: In vitro antifungal activity (MIC), NCCLS method; assay type: cell-based; details: Candida parapsilosis ATCC 34136; 48 hours
Description: as §1, §2

[7] = tested on: Candida albicans ATCC 10231; experiment: In vitro antifungal activity (MIC), NCCLS method; assay type: cell-based; details: 48 hours
Description: as §1, §2

[8] = tested on: Aspergillus flavus ATCC 64025; experiment: In vitro antifungal activity (MIC), NCCLS method; assay type: cell-based; details: 48 hours
Description: as §1, §2

[9] = tested on: Aspergillus terreus ATCC 46941; experiment: In vitro antifungal activity (MIC), NCCLS method; assay type: cell-based; details: 48 hours
Description: as §1, §2

[10] = tested on: Cryptococcus neoformans ATCC 36556; experiment: In vitro antifungal activity (MIC), NCCLS method; assay type: cell-based; details: RPMI 1640 medium, 72 hours
Description: as §1, §2

[11] = tested on: Candida lusitaniae ATCC 42720; experiment: In vitro antifungal activity (MIC), NCCLS method; assay type: cell-based; details: 48 hours
Description: as §1, §2

[12] = tested on: Candida glabrata ATCC 48435; experiment: In vitro antifungal activity (MIC), NCCLS method; assay type: cell-based; details: Candida glabrata ATCC 48435; 48 hours
Description: as §1, §2

[13] = target: T1, chitin synthase 1 of Candida albicans chs2 Δ chs 3 Δ (Candida albicans, UniProt P23316); experiment: In vitro enzyme assay for chitin synthase 1 of Candida albicans (enzyme 1); assay type: biochemical; details: relative to polyoxin D (50% inhibitory activity = value 5)
T1 construct: Crude enzyme was prepared using the Candida albicans chs2 Δ chs 3 Δ mutant; endogenous in cells; host or cells: Candida albicans chs2Δ/chs2Δ chs3Δ/chs3Δ mutant; 130,000 x g membrane pellet
Description: Crude enzyme was prepared using the Candida albicans chs2 Δ chs 3 Δ mutant (chs2 Δ::hisG/chs2 Δ::hisG chs3 Δ::hisG/chs3 Δ::hisG) strain, which can only produce the chitin synthase 1. The strain was inoculated with the SDA (Sabouraud dextrose agar) culture medium (4% dextrose, 1% peptone, pH 5.6) and cultured at 30° C. for 15-17 hours until the absorbance at 550nm reaches 0.7. The cells were collected and suspended in a 50 mM Tris-HCl (pH 7.5) buffer solution containing 5 mM magnesium acetate. After centrifugation at 8,000×g for 10 minutes, the pellets were suspended in the same Tris-HCl buffer solution. The suspension was divided into aliquots in 50 mL conical test tubes. After adding glass beads, the cells were disrupted by vigorously vortexing with an interval of 30 seconds. The cell residues were removed by centrifuging at 3,000×g for 5 minutes. The supernatant was ultra-centrifuged at 130,000×g for 1 hour. The resultant pellets were collected and suspended in 50 mM Tris-HCl (pH 7.5) containing 33% glycerol, to a final volume of 1.6 mg/g (wet weight) of yeast used. The suspension was divided into aliquots and kept at −70° C. until it is used.
(§3) The inhibitory activities against the chitin synthase 1 of Candida albicans chs2 Δ chs 3 Δ (abbreviated as ‘enzyme 1’) and the chitin synthase 2 of Saccharomyces cerevisiae ECY38-38A(pAS6)(abbreviated as ‘enzyme 2’) was examined for compound Nos. 1 to 70 compound and polyoxin D, a positive control compound.
(§4) The inhibitory activity against the chitin synthase 1 prepared from Candida albicans and the chitin synthase 2 prepared from Saccharomyces cerevisiae were examined as follows. A reaction mixture containing 32 mM Tris-HCl (pH 7.5), 2 mM cobalt acetate, 1.1 mM UDP-[U-^14C]-N-acetyl-d-glucosamine (GlcNAc) (400,000 cpm/μmol), 2 μL of trypsin (0.75 mg/mL), 20 μL of each crude enzyme and 14 μL of each test sample was kept at 30° C. for 15 minutes to activate the enzyme. Then, 2 μL of trypsin inhibitor (1.5 mg/mL) was added and the mixture was kept in an ice bath for 10 minutes to deactivate trypsin. 2 μL of 0.8 M N-acetyl-d-glucosamine was added to a total volume of 50 μL and reaction was performed at 30° C. for 90 minutes. The reaction was stopped using 1 mL of 10% TCA solution and the reaction solution was filtered with a GF/C filter and dried at room temperature. After adding 3 mL of a scintillation cocktail solution, the amount of isotopes was measured using a liquid scintillation counter. Percentage inhibition against each enzyme was calculated by the following Equation 1.
(§5) The control group was not added with a test sample in the reaction mixture and that of the untreated group contained neither the test sample nor the crude enzyme.
(§6) A 50% inhibitory activity of polyoxin D against the enzyme was given the value 5. A compound having the same inhibitory activity as that of polyoxin D at the same concentration was given the value 5. Compounds having the inhibitory activity at 2-fold, 4-fold, 8-fold and 16-fold higher concentrations than that of polyoxin D were given the values of 4, 3, 2 and 1, respectively. On the other hand, compounds having the inhibitory activity at ½, ¼ and ⅛ lower concentrations than that of polyoxin D were given the values of 6, 7 and 8, respectively.

[14] = target: T2, chitin synthase 2 of Saccharomyces cerevisiae ECY38-38A(pAS6) (Saccharomyces cerevisiae, UniProt P14180); experiment: In vitro enzyme assay for chitin synthase 2 of Saccharomyces cerevisiae (enzyme 2); assay type: biochemical; details: relative to polyoxin D (50% inhibitory activity = value 5)
T2 construct: made in house; host or cells: Saccharomyces cerevisiae ECY38-38A (chs1-23 chs2::LEU2 cal1/csd2) carrying plasmid pAS6, grown in galactose medium; 130,000 x g membrane pellet
Description: Crude enzyme was prepared using the recombinant Saccharomyces cerevisiae ECY38-38A(pAS6) (MATa chs1-23 chs2::LEU2 cal 1/csd 2 ura 3-52 trp 1-1 leu 2-2 pAS6) strain, which can produce the chitin synthase 2 only. The strain was inoculated with the YPG culture medium (1% yeast extract, 2% peptone, 2% galactose) and cultured at 30° C. overnight. Then, it was inoculated with a fresh YPG culture medium and cultured for 15-17 hours until the Absorbance at 550 nm reaches 1.0. The cells were collected and suspended in 50 mM Tris-HCl (pH 7.5) buffer containing 5 mM magnesium acetate. After centrifugation at 8,000×g for 10 minutes, the pellets were suspended in the same Tris-HCl buffer solution. The suspension was divided into aliquots in 50 mL conical test tubes. After adding the glass beads, the cells were disrupted by vigorously vortexing with an interval of 30 seconds. The cell residues were removed by centrifuging at 3,000×g for 5 minutes. The supernatant was ultra-centrifuged at 130,000×g for 1 hour. The resultant pellets were collected and suspended in 50 mM Tris-HCl (pH 7.5) containing 33% glycerol, to a final volume of 1.6 mg/g (wet weight) of yeast used. The suspension was divided into aliquots and kept at −70° C. until it is used.
as §3, §4, §5, §6

T1 sequence (P23316 whole entry, stated change not applied): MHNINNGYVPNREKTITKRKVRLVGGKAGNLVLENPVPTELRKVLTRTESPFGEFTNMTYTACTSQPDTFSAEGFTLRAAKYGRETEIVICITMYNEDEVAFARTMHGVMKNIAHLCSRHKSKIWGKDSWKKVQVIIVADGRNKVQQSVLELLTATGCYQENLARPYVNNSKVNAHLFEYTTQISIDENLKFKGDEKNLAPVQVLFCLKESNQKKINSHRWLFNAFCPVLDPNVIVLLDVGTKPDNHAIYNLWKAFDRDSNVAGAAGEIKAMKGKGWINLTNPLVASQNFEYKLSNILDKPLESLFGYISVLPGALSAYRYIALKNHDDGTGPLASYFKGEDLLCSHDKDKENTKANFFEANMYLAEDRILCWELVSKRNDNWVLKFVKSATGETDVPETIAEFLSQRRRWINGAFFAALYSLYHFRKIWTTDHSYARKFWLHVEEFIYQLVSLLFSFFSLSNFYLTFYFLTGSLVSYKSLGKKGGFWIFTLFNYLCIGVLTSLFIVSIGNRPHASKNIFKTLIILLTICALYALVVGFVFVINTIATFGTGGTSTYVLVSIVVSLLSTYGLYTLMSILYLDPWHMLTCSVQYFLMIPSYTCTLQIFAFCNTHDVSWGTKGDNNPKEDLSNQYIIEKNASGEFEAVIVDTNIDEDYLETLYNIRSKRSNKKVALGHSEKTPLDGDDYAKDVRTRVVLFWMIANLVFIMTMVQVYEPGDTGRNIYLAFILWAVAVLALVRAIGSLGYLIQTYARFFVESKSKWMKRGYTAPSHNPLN
T2 sequence (P14180 whole entry): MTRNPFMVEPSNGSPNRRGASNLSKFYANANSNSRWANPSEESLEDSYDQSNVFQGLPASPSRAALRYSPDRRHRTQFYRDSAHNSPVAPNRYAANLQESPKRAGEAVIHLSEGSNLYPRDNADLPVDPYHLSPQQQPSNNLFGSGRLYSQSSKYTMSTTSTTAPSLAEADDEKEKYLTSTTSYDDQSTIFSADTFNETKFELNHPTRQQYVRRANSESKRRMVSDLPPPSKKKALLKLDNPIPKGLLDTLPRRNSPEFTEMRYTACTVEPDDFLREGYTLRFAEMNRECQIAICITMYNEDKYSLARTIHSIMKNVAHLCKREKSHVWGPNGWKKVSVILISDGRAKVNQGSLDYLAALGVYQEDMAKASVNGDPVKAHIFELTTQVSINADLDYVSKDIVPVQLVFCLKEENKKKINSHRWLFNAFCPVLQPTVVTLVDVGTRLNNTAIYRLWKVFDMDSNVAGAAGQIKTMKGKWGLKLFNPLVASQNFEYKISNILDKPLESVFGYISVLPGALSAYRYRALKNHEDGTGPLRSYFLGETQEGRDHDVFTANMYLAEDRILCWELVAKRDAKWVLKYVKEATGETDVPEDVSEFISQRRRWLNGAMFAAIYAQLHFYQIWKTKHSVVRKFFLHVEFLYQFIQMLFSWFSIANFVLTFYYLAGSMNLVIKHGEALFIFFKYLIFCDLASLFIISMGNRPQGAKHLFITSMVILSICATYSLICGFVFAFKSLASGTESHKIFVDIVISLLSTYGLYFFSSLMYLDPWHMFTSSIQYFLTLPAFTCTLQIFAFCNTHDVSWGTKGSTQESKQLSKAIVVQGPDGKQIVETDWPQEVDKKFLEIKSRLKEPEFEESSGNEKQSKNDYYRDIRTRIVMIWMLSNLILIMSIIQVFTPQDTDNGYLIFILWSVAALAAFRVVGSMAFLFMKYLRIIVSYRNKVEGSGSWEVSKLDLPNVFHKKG

Compound | MIC (minimum inhibitory concentration) [1] [µg/mL] | MIC (minimum inhibitory concentration) [2] [µg/mL] | MIC (minimum inhibitory concentration) [3] [µg/mL] | MIC (minimum inhibitory concentration) [4] [µg/mL] | MIC (minimum inhibitory concentration) [5] [µg/mL] | MIC (minimum inhibitory concentration) [6] [µg/mL] | MIC (minimum inhibitory concentration) [7] [µg/mL] | MIC (minimum inhibitory concentration) [8] [µg/mL] | MIC (minimum inhibitory concentration) [9] [µg/mL] | MIC (minimum inhibitory concentration) [10] [µg/mL] | MIC (minimum inhibitory concentration) [11] [µg/mL] | MIC (minimum inhibitory concentration) [12] [µg/mL] | Relative activity Enzyme 1 [13] | Relative activity Enzyme 2 [14]
13-(4-Isopropylbenzyl)-9-O-(3-hydroxypropyl)berberrubine chloride [Compound No. 53] | 1 | 2 | 0.5 | 0.5 | 4 | 2 | 0.5 | 8 | 8 | 1 | 2 | 2 | 4 (Compounds having the inhibitory activity at 2-fold, 4-fold, 8-fold and 16-fold higher concentrations than that of polyoxin D were given the values of 4, 3, 2 and 1, respectively) | 6 (compounds having the inhibitory activity at ½, ¼ and ⅛ lower concentrations than that of polyoxin D were given the values of 6, 7 and 8, respectively)
COc1ccc2c(Cc3cc(F)c(F)c(F)c3)c3[n+](cc2c1OCc1ccc(C(C)(C)C)cc1)CCc1cc2c(cc1-3)OCO2.[Cl-] [Compound No. 61, 13-(3,4,5-Trifluorobenzyl)-9-O-(4-tert-butylbenzyl)berberrubine chloride] |  |  |  |  |  |  |  |  |  |  |  |  | 2 (Compounds having the inhibitory activity at 2-fold, 4-fold, 8-fold and 16-fold higher concentrations than that of polyoxin D were given the values of 4, 3, 2 and 1, respectively) | 4 (Compounds having the inhibitory activity at 2-fold, 4-fold, 8-fold and 16-fold higher concentrations than that of polyoxin D were given the values of 4, 3, 2 and 1, respectively)
COc1cc(Cc2c3[n+](cc4c(OCc5ccc(C(C)(C)C)cc5)c(OC)ccc24)CCc2cc4c(cc2-3)OCO4)cc(OC)c1OC.[Cl-] [Compound No. 64, 13-(3,4,5-Trimethoxybenzyl)-9-O-(4-tert-butylbenzyl)berberrubine chloride] |  |  |  |  |  |  |  |  |  |  |  |  | 2 (Compounds having the inhibitory activity at 2-fold, 4-fold, 8-fold and 16-fold higher concentrations than that of polyoxin D were given the values of 4, 3, 2 and 1, respectively) | 4 (Compounds having the inhibitory activity at 2-fold, 4-fold, 8-fold and 16-fold higher concentrations than that of polyoxin D were given the values of 4, 3, 2 and 1, respectively)
COc1ccc2c(Cc3ccc(OC(F)(F)F)cc3)c3[n+](cc2c1OCc1ccc(C(C)(C)C)cc1)CCc1cc2c(cc1-3)OCO2.[Cl-] [Compound No. 67, 13-(4-Trifluoromethoxybenzyl)-9-O-(4-tert-butylbenzyl)berberrubine chloride] |  |  |  |  |  |  |  |  |  |  |  |  | 2 (Compounds having the inhibitory activity at 2-fold, 4-fold, 8-fold and 16-fold higher concentrations than that of polyoxin D were given the values of 4, 3, 2 and 1, respectively) | 5 (A compound having the same inhibitory activity as that of polyoxin D at the same concentration was given the value 5)
COc1ccc2c(Cc3ccc(C(F)(F)F)cc3)c3[n+](cc2c1OCc1ccc(C(C)(C)C)cc1)CCc1cc2c(cc1-3)OCO2.[Cl-] [Compound No. 70, 13-(4-Trifluoromethylbenzyl)-9-O-(4-tert-butylbenzyl)berberrubine chloride] |  |  |  |  |  |  |  |  |  |  |  |  | 2 (Compounds having the inhibitory activity at 2-fold, 4-fold, 8-fold and 16-fold higher concentrations than that of polyoxin D were given the values of 4, 3, 2 and 1, respectively) | 5 (A compound having the same inhibitory activity as that of polyoxin D at the same concentration was given the value 5)
C[C@@H]1[C@H](O)[C@@H](C)/C=C/C=C/C=C/C=C/C=C/C=C/C=C/[C@H](O[C@@H]2O[C@H](C)[C@@H](O)[C@H](N)[C@@H]2O)C[C@@H]2O[C@](O)(C[C@@H](O)C[C@@H](O)[C@H](O)CC[C@@H](O)C[C@@H](O)CC(=O)O[C@H]1C)C[C@H](O)[C@H]2C(=O)O [amphotericin B, reference compound] | 0.5 (≈ 0.541 µM) | 1 (≈ 1.08 µM) | 0.5 (≈ 0.541 µM) | 0.5 (≈ 0.541 µM) | 0.5 (≈ 0.541 µM) | 0.5 (≈ 0.541 µM) | 0.5 (≈ 0.541 µM) | 4 (≈ 4.33 µM) | 16 (≈ 17.3 µM) | 0.125 (≈ 0.135 µM) | 1 (≈ 1.08 µM) | 1 (≈ 1.08 µM) |  | 

Reference: patent US7915276B2, “Berberrubine derivatives having antifungal activities” (priority 2006, dated 2011)
